Consider nine compounds from patent publication US11186588B2 (AYUMI PHARMACEUTICAL CORPORATION, priority 2017, dated 2021).

For one data set, the system named is IL-6 production. The data set can be described thus: LPS-induced IL-6 production model test. Format: in vivo, C57BL/6J mice. The settings on record: 10 mg/kg oral, 30 min before LPS 1 mg/kg i.p., serum IL-6 60 min after LPS, mice; for inhibition in vivo at 10 mg/kg: Mus musculus, 1 h. As for the experimental part:
In order to evaluate the inhibitory activity of inflammatory cytokine production in the present compounds, LPS-induced IL-6 production model evaluation was carried out. The specific method is described below.
An appropriate amount of each compound was weighed, triturated with an agate mortar, and suspended or dissolved in 1% methyl cellulose solution to prepare 1 mg/mL solution.
C57BL/6J mice (male, Purchaser: Charles River Laboratories Japan, Inc.) were weighted, before divided into normal group, control group and each compound-administered group based on the measured body weight using a random number, wherein each group contained 6 samples. The mice were manually held in hands and forced orally administered the 1% methyl cellulose solution (normal and control group) or each administration solution comprising the compound (each compound-administered group) at a dose of 10 mL/kg into stomach using a feeding needle. After 30 minutes from administration of the 1% methyl cellulose solution or each compound administration solution, the mice were manually held in hands and intraperitoneally administered physiological saline (normal group) or LPS solution (control and each compound-administered group) at a dose of 1 mg/kg. After 60 minutes from administration of the LPS solution, whole blood was collected from the abdominal vena cava of each mouse under isoflurane inhalation anesthesia (available from Mylan Seiyaku Ltd.), and the mice were euthanized. The collected blood was allowed to stand at room temperature for one hour, and then centrifuged at 1,500 G for 10 minutes to collect a serum (supernatant). The collected serum was stored in a deep freezer set at −80° C. until the measurement of IL-6 in the serum. The IL-6 concentration in the serum of each mouse was measured by a commercially available kit (available from R&D systems, Cat No. M6000B), according to the protocol attached thereto.
The IL-6 production inhibition rate (%) was calculated by the following equation using Microsoft EXCEL 2010. IL-6 production inhibition rate (%)=100−{(average value of IL-6 concentration in serum of each compound-administered group)−(average value of IL-6 concentration in serum of normal group))/(average value of IL-6 concentration in serum of control group)−(average value of IL-6 concentration in serum of normal group)}×100

Data set [1] in a line: Pharmacokinetics test in rats (oral administration). The settings on record: mean n = 4; for AUCinf / AUCt / Cmax / Kel / MRT / T1/2 / Tmax: oral 2 mg/mL solution at 5 mL/kg; for Concentration (ng/mL), sampling time 0.5 h / Concentration (ng/mL), sampling time 1 h / Concentration (ng/mL), sampling time 3 h / Concentration (ng/mL), sampling time 6 h: plasma; for Concentration (ng/mL), sampling time 0.5 h: 0.5 h after oral 2 mg/mL solution at 5 mL/kg; for Concentration (ng/mL), sampling time 1 h: 1 h after oral 2 mg/mL solution at 5 mL/kg; for Concentration (ng/mL), sampling time 3 h: 3 h after oral 2 mg/mL solution at 5 mL/kg; for Concentration (ng/mL), sampling time 6 h: 6 h after oral 2 mg/mL solution at 5 mL/kg. Format: in vivo, LEW/CrlCrlj rats. As for the experimental part: In order to evaluate the transition of plasma concentration of the present compound after oral administration, pharmacokinetics was evaluated in rats. The specific method is described below.
Appropriate amounts of Example 71 and various salts thereof were weighed, triturated with an agate mortar, and suspended or dissolved in 1% methyl cellulose solution to 2 mg/mL (as a converted quantity of Example 71 considering the correction of purify).
LEW/CrlCrlj rats (male, purchased form Charles River Laboratories Japan, Inc.) were weighted, a random number based on the measured body weight was used to avoid difference in average body weight among groups, and the rats were divided into groups, wherein each groups contained 4 rats. The rats were manually held in hands and forced orally administered each administration solution comprising the compound at a dose of 5 mL/kg into stomach using a feeding needle. At 0.5, 1, 3, 6 and 24 hours after the administration of each administration solution comprising the compound, the rats were manually held in hands, and blood was collected from the jugular vein or subclavian vein using a heparin-treated injection syringe. The obtained blood was centrifuged at 1,500 G for 10 minutes, and plasma was collected as an actual sample. In addition, plasma was collected from rats before the administration of the compound in the same manner, which was used as blank plasma. The collected actual samples and blank plasma were stored in a freezer set at −70° C. until the measurement of the compound concentration. To 20 μL of each actual sample were added 20 μL of acetonitrile (available from Kishida Chemical Co., Ltd., Cat No. 140-00401), 100 μL of MilliQ water and 20 μL of the internal standard solution to prepare an analytical sample. In addition, to 20 μL of blank plasma were added 20 μL or 40 μL of acetonitrile (available from Kishida Chemical Co., Ltd., Cat No. 140-00401) and 100 μL of MilliQ water (a blank sample or a zero sample, respectively). A standard sample for a calibration curve was prepared by mixing 20 μL of blank plasma, 20 μL of the standard solution for a calibration curve in each concentration, 100 μL of MilliQ water and 20 μL of the internal standard solution. Whole amount of the prepared each sample was applied to a diatomaceous earth column for liquid-liquid extraction (available from Biotage, Cat No. 820-0200), tert-butyl methyl ether (available from Kanto Chemical Co., Inc., Cat No. 04418-5B) was added and eluted by natural dropping, and the obtained eluate was concentrated to dryness under a nitrogen stream. The residue was dissolved in the re-dissolved solution and 10 μL of each sample was injected into the LC/MS/MS apparatus.
LC/MS/MS analysis was carried out under the following conditions. Analytical column: Hydrosphere C18, 3 μm, 2.0 mm I.D.×50 mm (from YMC, Cat No. HS12S03-0502WT)
Flow rate: 0.3 mL/min. Column temperature: 50° C. Peak area calculation, peak area ratio calculation, preparation of calibration and quantification used in calculating the concentration for the LC/MS/MS analysis were carried out by Analyst ver.1.6.2 (available from AB Sciex). In addition, by using the obtained concentration measurement results, these were analyzed by Non-compartmental model of a pharmacokinetics analysis program WinNonlin ver.6.1 (Pharsight Corporation), and the pharmacokinetics parameter was calculated.

The target of data set [2] is Recombinant BRD4 (44-168) protein (Homo sapiens (Human), UniProt O60885). The data set can be described thus: BRD4-H4KAc4 binding assay (amplified luminescence proximity homogeneous assay, AlphaScreen). The settings on record: 10 uM. The method in brief: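 His/FLAG-tagged BRD4 (44-168) and biotinylated tetra-acetylated H4 peptide, each added as 250 nM solutions, incubated with compound 60 min at room temperature in the dark, then AlphaScreen beads 60 min. Emission 520-620 nm at 680 nm excitation, duplicates; % inhibition from blank- and DMSO-corrected signal.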
Background: Alpha assays give light when donor and acceptor beads are brought close together.

Another data set has as its system NF-κB. The data set can be described thus: NF-κB reporter gene assay (TNF-α stimulated A549/NF-κB-luc cells). The settings on record: Homo sapiens, TNF-α stimulation. Format: cell-based. The procedure, abridged:
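A549 cells stably carrying an NF-κB luciferase reporter were preincubated with compound for 1 h, then stimulated with TNF-α for 3 h. Luminescence was read with Steady-Glo, and inhibition was scaled between blank and DMSO control wells. IC50 was obtained by curve fitting.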
In general terms: In a reporter assay the amount or activity of a reporter protein is the signal.

For the compound `CC(=O)Nc1ccc(C2=NN(Cc3cccnc3)c3nnc(C)n3-c3sc(C)c(C)c32)cc1.CC(=O)Nc1ccc(C2=NN(Cc3cccnc3)c3nnc(C)n3-c3sc(C)c(C)c32)cc1.O=C(O)/C=C/C(=O)O` [0.5 Fumarate of Example 71], the “LPS-induced IL-6 production (% Inhibition @ 10 mg/kg)” value in the data set with IL-6 production was determined as 83.0%. Further, in data set [1], the AUCinf was determined as 54.47 ng·h/mL, the AUCt came to 31.38 ng·h/mL, the Cmax is 15.70 ng/mL and the Kel stood at 0.35 h⁻¹. In addition, in data set [1], the mean residence time (MRT) is on record as 1.63 h; the T1/2 turned out to be 3.02 h; the time of peak concentration (Tmax) is 0.50 h; the “Concentration (ng/mL), sampling time 0.5 h” value was determined as 15.70 ng/mL. In data set [1], the “Concentration (ng/mL), sampling time 1 h” value came out at 11.3 ng/mL; the “Concentration (ng/mL), sampling time 3 h” value was determined as 4.28 ng/mL; the “Concentration (ng/mL), sampling time 6 h” value was 2.29 ng/mL.
On to `CC(=O)Nc1ccc(C2=NN(Cc3cccnc3)c3nnc(C)n3-c3sc(C)c(C)c32)cc1.CC(=O)Nc1ccc(C2=NN(Cc3cccnc3)c3nnc(C)n3-c3sc(C)c(C)c32)cc1.O=C(O)CCC(=O)O` [0.5 Succinate of Example 71], for which, in the data set on IL-6 production, the “LPS-induced IL-6 production (% Inhibition @ 10 mg/kg)” value is 83.0%. In data set [1], the AUCinf worked out at 106.41 ng·h/mL, the AUCt stood at 104.34 ng·h/mL, the peak concentration (Cmax) is on record as 79.8 ng/mL and the Kel came out at 0.64 h⁻¹. In data set [1], the MRT was determined as 1.30 h; the T1/2 worked out at 1.10 h; the time to peak (Tmax) was determined as 0.50 h; the “Concentration (ng/mL), sampling time 0.5 h” value was determined as 79.8 ng/mL. Also, in data set [1], the “Concentration (ng/mL), sampling time 1 h” value is reported as 36.2 ng/mL; the “Concentration (ng/mL), sampling time 3 h” value is 6.88 ng/mL; the “Concentration (ng/mL), sampling time 6 h” value is 1.3 ng/mL.
`CC(=O)Nc1ccc(C2=NN(Cc3cccnc3)c3nnc(C)n3-c3sc(C)c(C)c32)cc1.Cl` [1 Hydrochloride of Example 71]: the “LPS-induced IL-6 production (% Inhibition @ 10 mg/kg)” value with IL-6 production is reported as 82.7%. For the same compound, in data set [1], the AUCinf was determined as 105.65 ng·h/mL, the AUCt turned out to be 114.07 ng·h/mL, the peak concentration (Cmax) is recorded as 111.0 ng/mL and the Kel came out at 0.57 h⁻¹. Further, in data set [1], the MRT was 1.12 h; the T1/2 was 1.24 h; the Tmax stood at 0.50 h; the “Concentration (ng/mL), sampling time 0.5 h” value stood at 111.0 ng/mL. In data set [1], the “Concentration (ng/mL), sampling time 1 h” value is 34.0 ng/mL; the “Concentration (ng/mL), sampling time 3 h” value is 6.75 ng/mL; the “Concentration (ng/mL), sampling time 6 h” value is listed as 1.5 ng/mL.
Regarding `CC(=O)Nc1ccc(C2=NN(Cc3cccnc3)c3nnc(C)n3-c3sc(C)c(C)c32)cc1.O=C(O)/C=C\C(=O)O` [1 Maleate of Example 71], the “LPS-induced IL-6 production (% Inhibition @ 10 mg/kg)” value in the data set on IL-6 production is on record as 82.0%. Also, in data set [1], the AUCinf was 118.01 ng·h/mL, the AUCt turned out to be 115.41 ng·h/mL, the Cmax is recorded as 80.1 ng/mL and the Kel is 0.64 h⁻¹. Further, in data set [1], the MRT turned out to be 1.27 h; the T1/2 is 1.09 h; the Tmax came to 0.50 h; the “Concentration (ng/mL), sampling time 0.5 h” value was 80.1 ng/mL. In data set [1], the “Concentration (ng/mL), sampling time 1 h” value came to 42.9 ng/mL; the “Concentration (ng/mL), sampling time 3 h” value is given as 7.69 ng/mL; the “Concentration (ng/mL), sampling time 6 h” value worked out at 1.66 ng/mL.
Regarding `COc1ncccc1CN1N=C(c2ccc(Cl)cc2)c2c(sc(C)c2C)-n2c(C)nnc21` [Example 49, 4-(4-chlorophenyl)-6-((2-methoxypyridin-3-yl)methyl)-2,3,9-trimethyl-6H-thieno[2,3-e][1,2,4]triazolo[3,4-c][1,2,4]triazepine], the inhibition at 10 µM in data set [2] was 100%. This compound registered an inhibition in vivo at 10 mg/kg in the data set with IL-6 production of 17.9%. This compound also had an IC50 in the data set with NF-κB of 197 nM.
With `COc1ncc(F)cc1CN1N=C(c2ccc(Cl)cc2)c2c(sc(C)c2C)-n2c(C)nnc21` [Example 89, 4-(4-chlorophenyl)-6-((5-fluoro-2-methoxypyridin-3-yl)methyl)-2,3,9-trimethyl-6H-thieno[2,3-e][1,2,4]triazolo[3,4-c][1,2,4]triazepine], in data set [2], the inhibition at 10 µM was found to be 100%. In addition, the IC50 in the data set with NF-κB was 556 nM.
The matching figures for `Cc1sc2c(c1C)C(c1ccccc1)=NN(Cc1cccnc1F)c1nnc(C)n1-2` [Example 90, 6-((2-fluoropyridin-3-yl)methyl)-2,3,9-trimethyl-4-phenyl-6H-thieno[2,3-e][1,2,4]triazolo[3,4-c][1,2,4]triazepine]: 100% and 298 nM.
`Cc1sc2c(c1C)C(c1ccc(N)cc1)=NN(Cc1cccnc1)c1nnc(C)n1-2` [Example 92, 4-(2,3,9-trimethyl-6-(pyridin-3-ylmethyl)-6H-thieno[2,3-e][1,2,4]triazolo[3,4-c][1,2,4]triazepin-4-yl)aniline]: testing at 10 mg/kg in the data set with IL-6 production gave an inhibition in vivo of 71%. In the data set with NF-κB, this compound gave an IC50 of 34.2 nM.
Taken in the same sequence, the figures for `CC(=O)Nc1ccc(C2=NNc3nnc(C)n3-c3sc(C)c(C)c32)cc1` [Example 94, N-(4-(2,3,9-trimethyl-6H-thieno[2,3-e][1,2,4]triazolo[3,4-c][1,2,4]triazepin-4-yl)phenyl)acetamide] were 45.7% and 96 nM.

One may read the Cmax as the highest concentration seen after dosing. The MRT is the average time that molecules of a dose stay in the body. For orientation: Tmax means the time from dosing to the highest level. One may read the inhibition as how much of the control response was suppressed. For orientation: inhibition in vivo means the percentage by which the read-out fell short of the control. Lower therefore signals a response near the control. The IC50 is the concentration that inhibits the measured activity by half. A high value points to weaker potency.
